Reference: patent US20040053915A1, “Use of stimulators of soluble guanylate cyclase for treating osteoporosis” (priority 2000, published 2004)

Tested on: rats of the strain HsdCpb:Wu
Assay: Increased bone formation in rats after 4 weeks of once-daily administration via stomach tube
Assay type: in vivo
Conditions: once per day via stomach tube, male and female rats, all test animals
Method: For a period of 4 weeks, one of the two compounds listed in Table 1 was administered, in each case in one of the concentrations given in Table 1, once per day via a stomach tube to 10 male and 10 female rats of the strain HsdCpb:Wu. […] Pathological endosteal or periosteal changes were not noticed.

SMILES	bone formation in the area of the spongioid bone proximally and distally to the epiphyseal arcus of the great tubular bones (50 mg/kg or more)	bone formation in the area of the spongioid bone proximally and distally to the epiphyseal arcus of the great tubular bones (5 mg/kg or more)
Nc1nc(-c2nn(Cc3ccccc3F)c3ncccc23)ncc1C1CC1 [Compound 1]	increased bone formation	
Nc1nc(-c2nn(Cc3ccccc3F)c3ncccc23)nc(N)c1N1CCOCC1 [Compound 2]		increased bone formation
